# Test results as given in US20070264349A1, “Nano-structured compositions and methods of making and using the same” (Novavax, Inc., priority 2006, published 2007).
# Legend:
# [1] = cited from earlier work
# [2] = Particle size measurement (Coulter particle sizer LS230); type: physicochemical; conditions: for mean size of nanoemulsion droplets comprising the active ingredient: after high-pressure homogenization, 10,000 psi (Examples 1, 2, 4); for particle size of a significant portion / almost all of the particles: formulations comprising ethanol (Tables 5 and 6), FIG. 10, FIG. 11; for mean particle size of raw active ingredient: before particle size reduction
# Text: A Coulter particle sizer LS230 was used to measure particle size.
# [3] = after high-pressure homogenization (Examples 1, 4, 7)
# [4] = after high-pressure homogenization, 10,000 psi (Examples 5, 6, 7)
Molecule,"size below which 100% of the particles lie [2, 3]",mean size of nanoemulsion droplets comprising the active ingredient [2],"milled mean particle size [2, 4]",particle size of a significant portion / almost all of the particles [2],mean particle size of raw active ingredient [2],solubility in water [1],also measured
"CN1CCCC1c1cccnc1 (stereo not drawn) [Nicotine, S-3-(1-methyl-2-pyrrolidinyl) pyridine]",–,–,–,–,–,freely water-soluble,–
"Nc1nc2c(ncn2COCCO)c(=O)[nH]1 [acyclovir, 2-amino-1,9-dihydro-9-[(2-hydroxyethoxy)methyl]-6H-purin-6-one]",less than 3 microns,132 nm,about 2 microns,less than 0.1 microns,54 μm,moderately soluble,"size below which 100% of the particles lie ([2]; after particle size reduction (FIG. 2, FIG. 4)): less than 3 μm; particle size of a significant portion of the particles ([2]; formulation comprising N-methyl-pyrrolidinone (Table 4), FIG. 9, bimodal): less than 0.4 microns"
"C[C@]12CC[C@@H]3c4ccc(O)cc4CC[C@H]3[C@@H]1CC[C@@H]2O [estradiol, estra-1,3,5(10)-triene-3,17β-diol]",–,about 93 nm,–,–,about 542 microns,–,–

# The next lines start with results.
"size below which 100% of the particles lie [2, 3]",mean size of nanoemulsion droplets comprising the active ingredient [2],"milled mean particle size [2, 4]",particle size of a significant portion / almost all of the particles [2],mean particle size of raw active ingredient [2],Molecule,solubility in water [1],also measured
–,–,–,–,190-210 μm,NCCCC(O)(P(=O)(O)O)P(=O)(O)O [alendronic acid],–,"milled mean particle size ([2]; after high-pressure homogenization, 10,000 psi (Example 3)): about 0.2 μm"
below 10 microns,–,2.79 microns,–,15-30 μm,O=C(c1ccc(OCCN2CCCCC2)cc1)c1c(-c2ccc(O)cc2)sc2cc(O)ccc12 [raloxifene],very slightly soluble,–
–,–,–,less than 1 microns,–,"[R—[R*,R*-(E)]]-cyclic(L-alanyl-D-alanyl-N-methyl-L-leucyl-N-methyl-L-leucyl-N-methyl-L-valyl-3-hydroxy-N, 4-dimethyl-L-2-amino-6-octenoyl-L-α-amino-butyryl-N-methylglycyl-N-methyl-L-leucyl-L-valyl-N-methyl-L-leucyl) [cyclosporine]",–,–
